Results: patent US10500194B2, “Covalent small molecule DCN1 inhibitors and therapeutic methods using the same” (THE REGENTS OF THE UNIVERSITY OF MICHIGAN, priority 2017, dated 2019)

Key:
[1] = molecular target: T1, DCN1 (Homo sapiens (Human), UniProt Q96GG9); test: Mass spectroscopy of DCN1 protein incubations; assay type: binding; details: for ablation of the parent peak in the mass spectrum / major new peak (protein-inhibitor adduct) / mass of new peak (DCN1 plus inhibitor, loss of morpholinyl group): DCN1 380 μM, 1.2 fold excess of inhibitor, 4° C. overnight, Q-TOF; for difference from DCN1 Apo-protein mass: FIG. 2; for formation of a covalent bond with DCN1 protein: FIG. 2, mass-spectroscopic analyses
Description: (§1) Human DCN1 (residues 58-259) were cloned into a pDEST17 plasmid containing an N-terminal His6 tag. DCN2 (residues 62-259), DCN3 (residues 86-304), DCN4 (residues 102-292) and DCN5 (residues 47-237) were cloned into an N-terminal His6-TEV expression vector. Pure proteins were derived from the same expression and purification protocols. Plasmids were transformed into Rosetta2 cells, the cells were grown in Terrific Broth at 37° C. to an O.D.600>1.0 and induced with 0.4 mM Isopropyl β-D-1-thiogalactopyranoside overnight at 20° C. The pelleted cells were resuspended in lysis buffer containing 25 mM Tris-HCl, pH 7.5, 200 mM NaCl and protease inhibitors, sonicated and centrifuged at 34,000×g for 45 minutes to remove debris. Cleared lysate was incubated with Ni-NTA resin (Qiagen) prewashed with lysis buffer, for 1 hr at 4° C. The matrix was loaded into a column then washed with 25 mM Tris-HCl, pH 7.5, 200 mM NaCl and 10 mM imidazole. Protein was eluted with 25 mM Tris-HCl, pH 7.5, 200 mM NaCl and 300 mM imidazole, concentrated and applied to a Superdex 75 (GE Healthcare) column pre-equilibrated with 25 mM Tris pH 7.5, 200 mM NaCl and 1 mM DTT. For DCN2-5, the N-terminal His6 tag was removed prior to gel filtration. Tag removal was achieved through incubation with TEV protease during overnight dialysis against 25 mM Tris pH 7.5, 200 mM NaCl and 1 mM DTT and a second Ni-NTA column. DCN2-5 proteins were stored at −80° C. in 1 mg/mL fractions containing 5% glycerol. The uncleaved DCN1 protein was stored at −80° C. without glycerol.
Recombinant DCN1 protein (380 μM) in 25 mM Tris 7.5, 200 mM NaCl, 1 mM DTT buffer was incubated with a 1.2 fold excess of selected DCN1 inhibitors at 4° C. for overnight. The reaction mixture was diluted with tenfold with water, and the protein was analyzed by Q-TOF mass spectroscopy. DCN1 untreated, or treated with previously described non-covalent inhibitors produced an isotope deconvoluted peak at 26.085.75 amus. Incubation under the described conditions with Examples 4, 7 and 9 led to 95-99% ablation of the parent peak in the mass spectrum, with a major (>90%) new peak appearing at 26588.96 amu (Dalton) for Example 4, 26604.34 amu for Example 7, and 26596.18 amu for Example 9. In each case this corresponds to addition of the inhibitor to the protein, coupled with the loss of the morpholinyl group, from the initial Michael adduct between the protein and the small molecule.

[2] = molecular target: T1, DCN1; test: Competitive FP binding assay; details: read-out: Binding affinity to DCN1 (IC50)
Description: The Fluorescence Polarization (FP) competitive binding assays were performed to accurately determine the binding affinities of our DCN1 inhibitors. A novel FAM labeled fluorescent probe compound (46) was designed and synthesized based on one of our potent small molecule DCN1 inhibitors. Equilibrium dissociation constants (Kd) values of 46 to both DCN1 and DCN2 proteins were determined from protein saturation experiments by monitoring the total FP values of mixtures composed with the fluorescent probe at a fixed concentration and proteins with increasing concentrations up to full saturation. Serial dilutions of proteins were mixed with 46 to a final volume of 200 μl in the assay buffer (100 mM phosphate buffer, pH=6.5, with 0.02% Tween-20 and 2% DMSO). Final probe concentration was 5 nM for both assays. Plates were incubated at room temperature for 30 minutes with gentle shaking to assure equilibrium. FP values in millipolarization units (mP) were measured using the Infinite M-1000 plate reader (Tecan U.S., Research Triangle Park, N.C.) in Microfluor 1 96-well, black, round-bottom plates (Thermo Scientific, Waltham, Mass.) at an excitation wavelength of 485 nm and an emission wavelength of 530 nm. Kd values of 46 were calculated by fitting the sigmoidal dose-dependent FP increases as a function of protein concentrations using Graphpad Prism 6.0 software (Graphpad Software, San Diego, Calif.).
as §1

[3] = tested on: neddylation of cullin 3 and NRF2 protein in HepG2 cells; test: Western blotting of cullin neddylation and NRF2 in HepG2 cells; assay type: cell-based; details: 20 h, compared with non-covalent inhibitor B
Description: HepG2 cells were treated as indicated concentrations for 20 h, NRF2, Cullin 1, and Cullin 3 proteins were examined by western blotting. GAPDH was used as a loading control.
Treated cells were lysed by RIPA buffer supplemented with protease inhibitor. The expression level of indicated proteins was examined by western blotting analysis. GAPDH was used as a loading control. Antibodies were purchased: Cullin 1 (sc-11384), Cullin2 (sc-10781), CullinS (sc-13014) and Cullin7 (sc-134565) from Santa Cruz Biotech. (Santa Cruz, Calif.); Cullin 4A (PA5-14542), Cullin 4B (PA5-35239), Cullin9 (PA5-20277), DCN2 (DCUNID2, PA5-31607) and DCN3 (DCUNID3, PA5-44000) from ThermoFisher Scientific (Wayne, Mich.); Cullin 3 (2759), NRF2 (12721), HO-1 (70081), NQO1 (3187), Cyclin E (4129), Bim (2819), Keap1 (8047) and UBC12 (4913) from Cell Signaling Technology (Boston, Mass.); DCN1 (GWB-E3D700) from GenWay Biotech (San Diego, Calif.). Results are representative of three independent experiments.

[4] = tested on: Nrf2 protein; test: Effect of covalent DCN1 inhibitors on Nrf2 protein level in mouse liver; assay type: in vivo; details: single dose 25 mg/kg IP, C57BL/6 male mice, western blotting
Description: Liver tissues harvested from C57BL/6 male mice treated with Example 9 (DI-1548) at 25 mg/kg via intraperitoneal (IP) injection were lysed with RIAP buffer. The expression level of Nrf2 protein was examined by western blotting. GAPDH was used a loading control.
The effect of several representative covalent DCN1 inhibitors (Examples 9, 21 and 22) on the level of Nrf2 protein in mouse liver was examined. Mice were administered with a single dose of Example 9 (DI-1548), Example 21 (DI-1859) or Example 22 (DI-1860) at 25 mg/kg, or phosphate-buffered saline (PBS), all via intraperitoneal (IP) injection. Mice were sacrificed at different time points and liver tissues were harvested for western blotting analysis for Nrf2 protein level. The data are shown in FIGS. 5, 6 and 7, respectively.

[5] = tested on: APAP-induced liver injury; test: Protection of mice from acetaminophen-induced liver injury (blood ALT activity); assay type: in vivo
Description: To induce acute liver injury, mice were administered a large dose (400 mg/kg) of APAP via intraperitoneal (I.P.) injection and were sacrificed 48 hr later. To examine the protective effect of DI-1859 (pretreatment), animals were I.P. injected with DI-1859 for three consecutive days (one day before APAP injection, three hours before APAP injection and a third dose on the next day after APAP injection). To examine the restorative effect of DI-1859 (post-treatment), mice were treated with DI-1859 three hours after APAP administration followed by two additional doses on the following two days. Two control groups of mice were treated with phosphate-buffered saline (PBS) or DI-1859, respectively. Blood sample collection was performed on each day.
The activity of alanine aminotransferase (ALT) in blood is a commonly used measurement clinically as a part of a diagnostic evaluation of liver injury, to determine liver health. Therefore, the blood ALT activity was measured using an ALT reagent set (Pointe Scientific Inc., Canton, Mich.). […] Furthermore, post-treatment of APAP with DI-1859 at 50 mg/kg reduces the APAP-induced elevated ALT level by approximately 50%.

T1 sequence (Q96GG9 58-259): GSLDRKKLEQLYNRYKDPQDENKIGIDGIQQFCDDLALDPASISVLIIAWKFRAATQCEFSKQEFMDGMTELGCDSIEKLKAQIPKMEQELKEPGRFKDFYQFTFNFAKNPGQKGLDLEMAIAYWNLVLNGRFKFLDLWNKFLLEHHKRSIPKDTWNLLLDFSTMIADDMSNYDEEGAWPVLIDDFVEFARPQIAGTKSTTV

Row | Compound | ablation of the parent peak in the mass spectrum [1] | major new peak (protein-inhibitor adduct) [1] | mass of new peak (DCN1 plus inhibitor, loss of morpholinyl group) [1] | difference from DCN1 Apo-protein mass [1] | formation of a covalent bond with DCN1 protein [1] | IC50 [2] | level of Nrf2 protein in mouse liver tissue [4] | also measured
1 | C=C(CN1CCOCC1)C(=O)NC[C@@H](NC(=O)[C@H](Cc1nc2ccc(Cl)cc2s1)NC(=O)CC)C1CCCCC1 [Example 4, N—((S)-2-((S)-3-(6-chlorobenzo[d]thiazol-2-yl)-2-propionamidopropanamido)-2-cyclohexylethyl)-2-(morpholinomethyl)acrylamide] | 95-99% | > 90% | 26588.96 amu | 503.21 Da | formation of a covalent bond | 0.0416 µM | – | –
2 | C=C(CN1CCOCC1)C(=O)NC[C@H](Cc1ccccc1)NC(=O)[C@H](Cc1nc2ccc(C(C)C)cc2s1)NC(=O)CC [Example 7, N—((S)-2-((S)-3-(6-prop-2-ylbenzo[d]thiazol-2-yl)-2-propionamidopropanamido)-3-phenylpropyl)-2-(morpholinomethyl)acrylamide] | 95-99% | > 90% | 26604.34 amu | 518.59 Da | formation of a covalent bond | 0.0374 µM | – | –
3 | C=C(CN1CCOCC1)C(=O)NC[C@@H](NC(=O)[C@H](Cc1nc2ccc(C(C)C)cc2s1)NC(=O)CC)C1CCCCC1 [Example 9, N—((S)-2-((S)-3-(6-prop-2-ypbenzo[d]thiazol-2-yl)-2-propionamidopropanamido)-2-cyclohexylethyl)-2-(morpholinomethyl)acrylamide] | 95-99% | > 90% | 26596.18 amu | 510.81 Da | formation of a covalent bond | 0.0665 µM | effectively increases | increasing the level of NRF2 protein [3]: much stronger biological activity; inhibition of neddylation of cullin 3 [3]: much stronger biological activity
4 | C=C(CN(C)C)C(=O)NC[C@@H](NC(=O)[C@H](Cc1nc2ccc(C(C)C)cc2s1)NC(=O)CC)C1CCCCC1 [Example 21, N—((S)-2-cyclohexyl-2-((S)-3-(6-isopropylbenzo[d]thiazol-2-yl)-2-propionamidopropanamido)ethyl)-2-((dimethylamino)methyl)acrylamide] | – | – | – | – | – | < 0.15 µM | effectively increases | reduction of APAP-induced elevated ALT level, post-treatment ([5]; APAP 400 mg/kg I.P., post-treatment at 50 mg/kg): approximately 50%; elevation of ALT activity by APAP, pretreatment ([5]; APAP 400 mg/kg I.P., pretreatment at 50 mg/kg): completely prevents; elevated ALT activity induced by APAP, pretreatment ([5]; APAP 400 mg/kg I.P., pretreatment, dose-dependent): effectively reduces; APAP-induced alanine aminotransferase (ALT) increase ([5]; pre- or post-treatment, APAP, FIG. 8): effectively blocks or reduces
5 | C=C(CN(CC)CC)C(=O)NC[C@@H](NC(=O)[C@H](Cc1nc2ccc(C(C)C)cc2s1)NC(=O)CC)C1CCCCC1 [Example 22, N—((S)-2-cyclohexyl-2-((S)-3-(6-isopropylbenzo[d]thiazol-2-yl)-2-propionamidopropanamido)ethyl)-2-((diethylamino)methyl)acrylamide] | – | – | – | – | – | < 0.15 µM | effectively increases | –
6 | CCC(=O)N[C@@H](Cc1nc2ccc(C(C)C)cc2s1)C(=O)N[C@H](CNC(=O)CCl)C1CCCCC1 [Example 38, (S)—N—((S)-2-(2-chloroacetamido)-1-cyclohexylethyl)-3-(6-isopropylbenzo[d]thiazol-2-yl)-2-propionamidopropanamide] | – | – | – | – | – | < 0.15 µM | – | –
7 | CCC(=O)N[C@@H](Cc1nc2ccc(C(C)C)cc2s1)C(=O)N[C@H](CNC(=O)/C=C/CN1CCOCC1)C1CCCCC1 [Example 39, (E)-N—((S)-2-cyclohexyl-2-((S)-3-(6-isopropylbenzo[d]thiazol-2-yl)-2-propionamidopropanamido)ethyl)-4-morpholinobut-2-enamide] | – | – | – | – | – | < 0.15 µM | – | –
